# Source: patent US6969609B1 (priority 1998, dated 2005)
# Test system: CAP-M8-specific CD8^+ effector T-cell line
# Assay type: cell-based, murine
substance,measurement,value
TNF-α,increase in peptide-specific proliferation over unmanipulated DC,28%
